In US20260001928A1 (CORTERIA PHARMACEUTICALS, priority 2022, published 2026):
*1 amine or outer side, *2 acyl side, *3 side chain or, on linkers, in order; H or OH if unused. Where a SMILES comes first, the peptide text is derived from it. Side-chain parts run from the residue outwards. [ ]: non-standard residue; d: D form. The star is where a group is joined. C20 diacid = O=C(O)CCCCCCCCCCCCCCCCCCC(=O)*; γGlu = O=C(O)[C@H](CCC(=O)[*:2])N[*:1]; NMeI = CC[C@H](C)[C@H](NC)C(=O)O; Aib = CC(C)(N)C(=O)O

Assays:
human CRF2a receptor = biological target: T1, human CRF2a receptor (Homo sapiens, UniProt Q13324); experiment: Activity at human CRF2a receptor, cAMP functional assay in TeloHEAC cells; assay type: cell-based; conditions: TeloHEAC cells stably expressing human CRF2a receptor, relative to urocortin 2 (100 nM = 100%)
T1 construct: expressed in transfected cells; host or cells: TeloHEAC cells
T1 sequence (Q13324 1-411): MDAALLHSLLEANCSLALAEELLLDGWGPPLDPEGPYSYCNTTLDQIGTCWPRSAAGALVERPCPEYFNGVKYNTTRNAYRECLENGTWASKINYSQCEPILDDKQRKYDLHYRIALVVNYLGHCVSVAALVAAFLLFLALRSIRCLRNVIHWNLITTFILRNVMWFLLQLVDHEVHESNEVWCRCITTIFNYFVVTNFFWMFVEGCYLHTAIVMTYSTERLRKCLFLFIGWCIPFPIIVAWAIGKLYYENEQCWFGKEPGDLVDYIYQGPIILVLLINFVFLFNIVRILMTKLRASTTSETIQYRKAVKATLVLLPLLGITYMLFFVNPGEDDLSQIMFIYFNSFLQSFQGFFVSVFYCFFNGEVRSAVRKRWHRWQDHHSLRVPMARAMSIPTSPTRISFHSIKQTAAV
How it was run: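 TeloHEAC cells stably expressing human CRF2a (10000 cells/well) were treated with 16-point 1:2 compound dilutions in HBSS/20 mM HEPES with IBMX for 30 min at 37° C. cAMP was read by HTRF (665/620 nm ratio). EC50 was the concentration giving 50% activation, with 100 nM urocortin 2 set as 100%.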

[1] = In vitro subcutaneous tissue supernatant (SCts) stability and metabolite identification, rat; assay type: in vitro ADME; design: remaining at 2 h: dose or concentration left out as unconfirmed; conditions: male, Sprague Dawley; rat subcutaneous tissue supernatant (SCts), 37° C, 2 h
[2] = Chemical stability in buffer (pH 7.4 / pH 4.5), % purity loss; assay type: physicochemical; conditions: 100 mM phosphate buffer pH 7.4; 40° C. vs 5° C.; 14 or 28 days
How it was run: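 LC-UV gave % loss after 14 or 28 days of storage at 5 °C or 40 °C. Samples were diluted supernatants from compound incubated 1 h at room temperature at 10 mg/mL target, in 100 mM acetate pH 4.5 or 100 mM phosphate pH 7.4.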

[3] = Pharmacokinetics in male Sprague Dawley rats after subcutaneous administration; assay type: in vivo; conditions: plasma, rat, SC, 0.1 mg/kg
Sprague Dawley rats = experiment: Effect on systolic blood pressure, telemetry in Sprague Dawley rats; assay type: in vivo, rat; conditions: 0.1 mg/kg SC
How it was run: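 Values are % change from a 1 h pre-dose baseline in systolic pressure, tracked by telemetry for up to 48 hours after a single 0.1 mg/kg subcutaneous dose. Rats (Sprague Dawley, n=2 per peptide) carried aortic catheters and recovered at least 10 days post-surgery; duration of action marks the last time point still showing an effect.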

EC50 (human CRF2a receptor): 0.11 nM
remaining at 2 h [1]: 71%
Buffer stability pH 7.4 % purity loss [2]: 0.0/Not Tested %
AUC(0-t) [3]: 4120 ng·h/mL
Cmax [3]: 115 ng/mL
Structure (SMILES): CC[C@H](C)[C@H](NC)C(=O)N[C@H](C(=O)N[C@@H](CC(C)C)C(=O)N[C@@H](CO)C(=O)N[C@@H](CC(C)C)C(=O)N[C@@H](CC(=O)O)C(=O)N[C@@H](C(=O)N1CCC[C@H]1C(=O)N[C@H](C(=O)N[C@@H](CCCCN)C(=O)N[C@@H](CC(C)C)C(=O)N[C@@H](CCCCNC(=O)CC[C@H](NC(=O)CCCCCCCCCCCCCCCCCCC(=O)O)C(=O)O)C(=O)N[C@@H](CCCCN)C(=O)N[C@H](C(=O)N[C@@H](CC(C)C)C(=O)N[C@@H](CC(C)C)C(=O)N[C@@H](CCC(=O)O)C(=O)N[C@@H](CCC(N)=O)C(=O)N[C@@H](CCC(=O)O)C(=O)N[C@@H](CCCCN)C(=O)N[C@@H](CCC(N)=O)C(=O)N[C@@H](CCCCN)C(=O)N[C@@H](CCC(=O)O)C(=O)N[C@@H](CCC(N)=O)C(=O)N[C@@H](CCCNC(=N)N)C(=O)N[C@@H](CCC(=O)O)C(=O)N[C@@H](CCC(N)=O)C(=O)N[C@@H](C)C(=O)N[C@@H](CCC(=O)O)C(=O)N[C@H](C(=O)N[C@@H](CC(N)=O)C(=O)NC(C)(C)C(=O)N[C@@H](CCC(N)=O)C(=O)N[C@H](C(=O)N[C@@H](CC(C)C)C(=O)N[C@@H](C)C(=O)N[C@@H](CCC(N)=O)C(=O)N[C@H](C(N)=O)C(C)C)[C@@H](C)CC)[C@@H](C)O)[C@@H](C)CC)[C@@H](C)CC)C(C)C)C(C)C [compound 218] (H-[NMeI]VLSLD[dV]PIKLK([γGlu-C20 diacid])KILLEQEKQKEQREQAETN[Aib]QILAQV-NH2)
Systolic blood pressure (Mean) % change from baseline, 8 h (Sprague Dawley rats; 8 h, n=2): −13%
Systolic blood pressure (Mean) % change from baseline, 12 h (Sprague Dawley rats; 12 h, n=2): −17%
Systolic blood pressure (Mean) % change from baseline, 24 h (Sprague Dawley rats; 24 h, n=2): −16%
Duration of action (Sprague Dawley rats; last time point with an effect on BP still observed): >24 h
